Experiments:
[1] = tested on: BXPC-3; assay: Antiproliferative activity against SMAD4/ME2-null human BXPC-3 cells assessed as inhibition of cell growth at 1 uM incubated for 72 hrs by CellTiter-Glo luminescence assay; format: functional
[2] = tested on: BXPC-3; assay: cells; conditions: Homo sapiens, BXPC-3, 72 h, read-out: INH
Description: Antiproliferative activity against SMAD4/ME2-null human BXPC-3 cells assessed as inhibition of cell growth at 10 uM incubated for 72 hrs by CellTiter-Glo luminescence assay

[3] = target: T1, NADP-dependent malic enzyme, mitochondrial (Homo sapiens) (UniProt Q16798); conditions: dose 0.1 µM, time 190.0 min
T1 sequence (whole entry): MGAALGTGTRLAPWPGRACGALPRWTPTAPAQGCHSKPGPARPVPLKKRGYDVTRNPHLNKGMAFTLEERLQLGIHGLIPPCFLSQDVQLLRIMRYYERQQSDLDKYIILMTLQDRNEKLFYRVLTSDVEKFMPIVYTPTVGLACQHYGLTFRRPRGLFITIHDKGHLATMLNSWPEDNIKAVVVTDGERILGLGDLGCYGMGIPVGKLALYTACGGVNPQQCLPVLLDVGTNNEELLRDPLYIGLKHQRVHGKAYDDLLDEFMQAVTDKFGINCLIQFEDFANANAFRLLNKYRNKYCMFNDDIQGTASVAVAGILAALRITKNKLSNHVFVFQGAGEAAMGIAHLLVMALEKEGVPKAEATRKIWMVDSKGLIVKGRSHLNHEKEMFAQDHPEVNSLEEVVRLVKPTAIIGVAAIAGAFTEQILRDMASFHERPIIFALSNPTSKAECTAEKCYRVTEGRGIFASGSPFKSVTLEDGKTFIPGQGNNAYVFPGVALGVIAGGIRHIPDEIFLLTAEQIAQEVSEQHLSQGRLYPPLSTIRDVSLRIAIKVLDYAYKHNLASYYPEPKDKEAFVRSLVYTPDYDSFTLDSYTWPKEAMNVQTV

[4] = target: T2, NADP-dependent malic enzyme (Homo sapiens, UniProt P48163); assay: (§1) Inhibition of His-tagged human recombinant full length ME1 using L-malate and beta-NADP+ as substrate preincubated with enzyme for 5 mins followed by beta-NADP+ challenge and incubated under shaking for 5 mins followed by incubation for 2 hrs without shaking by resorufin dye based fluorescence analysis
T2 sequence (P48163 whole entry): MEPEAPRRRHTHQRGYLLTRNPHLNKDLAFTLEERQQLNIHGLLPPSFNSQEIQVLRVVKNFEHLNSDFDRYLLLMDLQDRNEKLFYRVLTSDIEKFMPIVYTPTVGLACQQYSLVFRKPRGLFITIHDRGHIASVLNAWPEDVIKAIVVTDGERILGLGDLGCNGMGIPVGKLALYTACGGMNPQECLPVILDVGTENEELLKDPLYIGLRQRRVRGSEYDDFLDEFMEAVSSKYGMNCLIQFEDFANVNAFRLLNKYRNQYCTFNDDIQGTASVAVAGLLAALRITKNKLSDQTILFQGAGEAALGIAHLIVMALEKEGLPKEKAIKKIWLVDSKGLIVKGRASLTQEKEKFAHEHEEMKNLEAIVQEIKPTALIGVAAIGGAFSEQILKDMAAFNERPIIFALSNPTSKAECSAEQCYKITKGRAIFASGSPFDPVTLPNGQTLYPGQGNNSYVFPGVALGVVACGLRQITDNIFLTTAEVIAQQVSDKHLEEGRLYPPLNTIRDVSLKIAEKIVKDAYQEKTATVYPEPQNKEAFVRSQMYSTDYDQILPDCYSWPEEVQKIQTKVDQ

[5] = target: NAD-dependent malic enzyme, mitochondrial (Homo sapiens, UniProt P23368); assay: as §1, with “ME2” for “ME1”, “beta-NAD+” for “beta-NADP+”
Chain of NAD-dependent malic enzyme, mitochondrial (P23368 whole entry): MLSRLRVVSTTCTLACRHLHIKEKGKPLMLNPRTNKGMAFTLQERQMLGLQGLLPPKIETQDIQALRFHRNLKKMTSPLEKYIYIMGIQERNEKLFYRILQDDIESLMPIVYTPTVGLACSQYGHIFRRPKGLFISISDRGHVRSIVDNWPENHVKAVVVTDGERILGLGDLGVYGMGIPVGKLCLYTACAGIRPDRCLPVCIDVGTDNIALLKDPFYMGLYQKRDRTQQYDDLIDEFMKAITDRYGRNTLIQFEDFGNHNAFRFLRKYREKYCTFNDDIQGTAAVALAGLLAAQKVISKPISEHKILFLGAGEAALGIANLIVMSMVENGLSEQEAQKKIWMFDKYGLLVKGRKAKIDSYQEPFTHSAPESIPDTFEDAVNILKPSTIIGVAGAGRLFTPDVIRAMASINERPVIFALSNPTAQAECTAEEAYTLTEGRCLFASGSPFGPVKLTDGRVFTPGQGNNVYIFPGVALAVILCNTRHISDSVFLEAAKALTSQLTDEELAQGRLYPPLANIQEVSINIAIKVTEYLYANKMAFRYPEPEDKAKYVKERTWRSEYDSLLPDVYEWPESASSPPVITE

[6] = target: T3, NADP-dependent malic enzyme, mitochondrial (Homo sapiens, UniProt Q16798)
T3 sequence (Q16798 whole entry): T1 sequence (whole entry)
Description: (§2) Inhibition of His-tagged human recombinant ME3 (26 to 604 residues) using L-malate and beta-NADP+ as substrate preincubated with enzyme for 5 mins followed by beta-NADP+ challenge and incubated under shaking for 5 mins followed by incubation for 3 hrs without shaking by resorufin dye based fluorescence analysis

[7] = Selectivity for SMAD4/ME2-null human BXPC-3 cells over human HCE-T cells
[8] = target: T3, NADP-dependent malic enzyme, mitochondrial; remark: listed apart in the source
Description: as §2

[9] = tested on: BXPC-3; assay: cells; conditions: Homo sapiens, BXPC-3, 72 h
Description: Antiproliferative activity against SMAD4/ME2-null human BXPC-3 cells assessed as inhibition of cell growth incubated for 72 hrs by CellTiter-Glo luminescence assay

[10] = Cytotoxicity against human HCE-T cells assessed as inhibition of cell growth; format: toxicity, cell-based
[11] = Lipophilicity, log P of the compound; format: physicochemical; conditions: octanol/water
[12] = target: T1, NADP-dependent malic enzyme, mitochondrial (Homo sapiens); conditions: BXPC-3, Lysates, dose 100.0 µM, time 2.0 hrs
[13] = target: T1, NADP-dependent malic enzyme, mitochondrial (Homo sapiens); conditions: BXPC-3, dose 100.0 µM, time 24.0 hrs
[14] = tested on: HUVEC; assay: Cytotoxicity against human HUVEC cells assessed as inhibition of cell growth; format: toxicity, cell-based

Row | Structure (SMILES) | inhibition at 10 µM [2] [%] | Selectivity ratio [7] | IC50 ([4]; read-out: IC50) [nM] | IC50 ([5]; read-out: IC50) [nM] | IC50 [8] [nM] | IC50 [9] [nM] | other results
1 | O=C(C1CC1)N1CCN(c2ccc(O)cn2)CC1 | 10 |  |  |  |  |  | inhibition at 1 µM [1]: 0%; inhibition [3]: 14%
2 | O=C(CCc1ccccc1)N1CCN(c2ncc(O)cn2)CC1 |  |  |  |  |  |  | IC50 [4]: Not Active; IC50 [5]: Not Active; IC50 [6]: Not Active
3 | O=C(CCc1ccc(F)cc1)N1CCN(c2ccc(O)cn2)CC1 | 48 | 5 | 1740 | 1660 | 410 |  | 
4 | CC(=O)N1CCN(c2ccc(O)cn2)CC1 | 0 |  |  |  |  |  | inhibition at 1 µM [1]: 0%; inhibition [3]: 23%
5 | O=C(CN1CCN(c2ccc(O)cc2)CC1)Nc1ccccc1 | 18 | 5 | 340 | 360 | 110 |  | 
6 | O=C(Nc1nnn[nH]1)c1cc(-c2ccccc2)nc2ccccc12 |  |  | 13800 | 1700 | 5100 |  | 
7 | O=C(Cc1ccc(C(F)(F)F)cc1)N1CCN(c2ccc(O)cc2)CC1 | 39 | 5 | 210 | 410 | 330 |  | 
8 | O=C(/C=C/c1ccccc1)N1CCN(c2ccc(O)cc2)CC1 | 29 | 5 | 170 | 230 | 80 |  | 
9 | O=C(Cc1ccccc1)N1CCN(c2ccc(O)cc2)CC1 | 80 | 5 | 180 | 190 | 100 | 6000 | 
10 | Oc1ccc(N2CCNCC2)nc1 | 12 |  |  |  |  |  | inhibition at 1 µM [1]: 2%; inhibition [3]: 0%
11 | O=C(CCc1ccccc1)N1CCN(c2ccc(O)cc2)CC1 | 93 | 5 | 270 | 270 | 100 | 3600 | IC50 [10]: > 30000 nM
12 | CCCCOc1ccc(CCC(=O)N2CCN(c3ccc(O)cn3)CC2)cc1 | 7 | 5 | 1310 | 3900 | 390 | 15000 | 
13 | O=C(Nc1ccccc1)C1CCN(c2ccc(O)cc2)CC1 |  |  |  |  | 130 |  | 
14 | COCCOc1ccc(CCC(=O)N2CCN(c3ccc(O)cn3)CC2)cc1 | 3 | 5 | 3500 | 2600 | 580 |  | 
15 | CC(C)(CC(=O)N1CCN(c2ccc(O)cn2)CC1)c1ccccc1 | 99 | 5 | 2370 | 1370 | 150 | 3500 | logP [11]: 3.41; IC50 [10]: > 30000 nM
16 | O=C(Cc1ccccc1)N1CCN(c2ccc(O)cn2)CC1 |  |  | 1600 | 980 | 200 |  | 
17 | O=C(CCc1cc2ccccc2s1)N1CCN(c2ccc(O)cn2)CC1 | 46 | 5 | 1200 | 1630 | 240 |  | 
18 | COc1ccc(CCC(=O)N2CCN(c3ccc(O)cn3)CC2)cc1 | 13 | 5 | 1900 | 2500 | 470 |  | 
19 | O=C(Cc1ccc(Cl)cc1)N1CCN(c2ccc(O)cc2)CC1 | 80 | 5 | 150 | 150 | 130 | 5700 | 

Row | Structure (SMILES) | inhibition at 10 µM [2] [%] | Selectivity ratio [7] | IC50 ([4]; read-out: IC50) [nM] | IC50 ([5]; read-out: IC50) [nM] | IC50 [8] [nM] | IC50 [9] [nM] | other results
20 | Oc1ccc(N2CCN(CC3CC3)CC2)nc1 | 0 |  |  |  |  |  | inhibition at 1 µM [1]: 0%; inhibition [3]: 0%
21 | CC(C)(CC(=O)N1CCN(c2ccc(O)cn2)CC1)c1ccc(Cl)cc1 | 97 | 5 | 1500 | 2800 | 360 | 5400 | IC50 [10]: > 30000 nM
22 | O=C(Nc1ccccc1)N1CCN(c2ccc(O)cc2)CC1 | 28 | 5 | 200 | 220 | 110 | 31000 | 
23 | O=C(CCc1cccs1)N1CCN(c2ccc(O)cn2)CC1 | 76 | 5 | 1320 | 1290 | 160 | 4600 | IC50 [10]: 25000 nM
24 | O=C(CCc1ccccc1)N1CCN(c2ccc(O)cn2)CC1 | 90 | 5 | 1500 | 1720 | 230 | 5100 | ΔTm [12]: 7 °C; ΔTm [13]: 4.9 °C; IC50 [10]: > 30000 nM; Activity [14]: Non-Toxic
25 | O=C(Cc1ccccc1)N1CCN(c2ccc(O)nn2)CC1 |  |  |  |  |  |  | IC50 [4]: Not Active; IC50 [5]: Not Active; IC50 [6]: Not Active
26 | CC(C)(CC(=O)N1CCN(c2ccc(O)cc2)CC1)c1ccccc1 | 85 | 5 | 150 | 270 | 120 | 5200 | IC50 [10]: > 30000 nM; Activity [14]: Non-Toxic
27 | O=C(COc1ccccc1)N1CCN(c2ccc(O)cc2)CC1 | 55 | 5 | 630 | 390 | 130 |  | 
28 | O=C(Nc1nnn[nH]1)C1c2ccccc2OC2C=CC=CC21 (stereo unspecified) |  |  | 220 | 200 | 21000 |  | 
29 | COc1ccc(N2CCN(C(=O)CCc3ccccc3)CC2)nc1 | 13 |  |  |  |  |  | 
30 | O=C(CCc1ccc(Cl)cc1)N1CCN(c2ccc(O)cn2)CC1 | 71 | 5 | 1020 | 1590 | 140 | 6300 | IC50 [10]: > 30000 nM
31 | CCCCOc1ccc(CCC(=O)N2CCN(c3ccc(O)cc3)CC2)cc1 | 29 | 5 | 420 | 350 | 60 |  | 
32 | CC(C)CN1CCN(c2ccc(O)cn2)CC1 | 6 |  |  |  |  |  | inhibition at 1 µM [1]: 0%; inhibition [3]: 0%
33 | O=C(CCc1ccccc1)N1CCN(c2ccc(F)cn2)CC1 | 0 |  |  |  |  | > 30000 | 
34 | O=C1CC(N2CCN(c3ccc(O)cc3)CC2)C(=O)N1c1ccccc1 (stereo unspecified) | 0 | 5 | 220 | 200 | 150 |  | 
35 | CC(C)(CC(=O)N1CCN(c2ccc(O)cn2)CC1)c1ccc(F)cc1 | 100 | 5 | 1300 | 1110 | 310 | 5900 | IC50 [10]: > 30000 nM
36 | O=C(O)c1cc2ccccc2c(Cc2cc3ccccc3c(C(=O)O)c2O)c1O |  |  | 10300 | 2800 | 5600 |  | 
37 | O=C(Cc1ccccc1)NC1CCN(c2ccc(O)cc2)CC1 |  |  |  |  | 70 |  | 
38 | O=C(Cc1ccccc1)N1CCN(c2ccc(O)nc2)CC1 |  |  |  |  |  |  | IC50 [4]: Not Active; IC50 [5]: Not Active; IC50 [6]: Not Active
